Test results: patent US20060018851A1, “Methods and compositions for preventing and treating hyperpigmentation of skin” (ProCyte Corporation, priority 2004, published 2006)

Tested on: B16 melanocytes
Assay: Melanin (pigment) produced by B16 melanocytes in culture; culture media analyzed for pigment content after 5 days, pictures of culture plates
Format: cell-based
Details: for Percent Inhibition of Pigmentation in Melanocytes: 5 days
Protocol: The effect of peptide manganese complexes on pigmentation was determined by determining the amount of melanin produced by B16 melanocytes in culture. Various amounts of a representative peptide manganese complex (glycyl-L-histidyl-L-lysine:manganese) were added to the culture medium. After 5 days, the culture media was collected and analyzed for pigment content. In addition, pictures were taken of the culture plates.

Compound	Percent Inhibition of Pigmentation in Melanocytes (0.1 ug/mL, Plate I) [%]	Percent Inhibition of Pigmentation in Melanocytes (0.1 ug/mL, Plate II) [%]	Percent Inhibition of Pigmentation in Melanocytes (1.0 ug/ml, Plate I) [%]	Percent Inhibition of Pigmentation in Melanocytes (1.0 ug/ml, Plate II) [%]	Percent Inhibition of Pigmentation in Melanocytes (10 ug/ml, Plate I) [%]	Percent Inhibition of Pigmentation in Melanocytes (10 ug/ml, Plate II) [%]	inhibition of pigment formation compared with kojic acid (25 ug/ml GHK-Mn vs 200 ug/mi kojic acid)	formation of pigment inhibited relative to the control (highest concentration tested)	formation of melanin pigments in cultured melanocytes (Table 4, FIG. 1) (various concentrations)	visual examination of culture flasks: secreted melanin (FIG. 2) (vs PBS control flask)	melanin in the cells, high magnification photograph (FIG. 3B) (vs control melanocyte culture (FIG. 3A))	inhibition of pigment formation compared with GHK-Mn (200 ug/mi kojic acid vs 25 ug/ml GHK-Mn)
glycyl-L-histidyl-L-lysine:manganese(II) [GHK-Mn]	42	28	68	35	88	81	approximately equivalent to that of 200 ug/mi of kojic acid	more than 80%	inhibited the formation of melanin pigments in cultured melanocytes in a dose responsive manner	contains relatively little melanin	containing much less melanin in the cells	
O=c1cc(CO)occ1O [kojic acid, 5-hydoxy-4-pyran-4-one-2-methyl, reference compound]												approximately equivalent
